Like-named read-outs stand apart in the source and are kept apart here.
What was measured:
[1] = molecular target: T1, dTRPA1(A)10b (Drosophila melanogaster, UniProt Q7Z020); assay type: cell-based; conditions: for change in intracellular Ca2+ on agonist administration: HEK293 cells expressing dTRPA1(A)10b, H2O2 10 μM, BITC 100 μM added at end of experiment
T1 construct: expressed in transfected cells; host or cells: HEK293
T1 sequence (Q7Z020 with tags, fused parts or gaps isoform Q7Z020-5): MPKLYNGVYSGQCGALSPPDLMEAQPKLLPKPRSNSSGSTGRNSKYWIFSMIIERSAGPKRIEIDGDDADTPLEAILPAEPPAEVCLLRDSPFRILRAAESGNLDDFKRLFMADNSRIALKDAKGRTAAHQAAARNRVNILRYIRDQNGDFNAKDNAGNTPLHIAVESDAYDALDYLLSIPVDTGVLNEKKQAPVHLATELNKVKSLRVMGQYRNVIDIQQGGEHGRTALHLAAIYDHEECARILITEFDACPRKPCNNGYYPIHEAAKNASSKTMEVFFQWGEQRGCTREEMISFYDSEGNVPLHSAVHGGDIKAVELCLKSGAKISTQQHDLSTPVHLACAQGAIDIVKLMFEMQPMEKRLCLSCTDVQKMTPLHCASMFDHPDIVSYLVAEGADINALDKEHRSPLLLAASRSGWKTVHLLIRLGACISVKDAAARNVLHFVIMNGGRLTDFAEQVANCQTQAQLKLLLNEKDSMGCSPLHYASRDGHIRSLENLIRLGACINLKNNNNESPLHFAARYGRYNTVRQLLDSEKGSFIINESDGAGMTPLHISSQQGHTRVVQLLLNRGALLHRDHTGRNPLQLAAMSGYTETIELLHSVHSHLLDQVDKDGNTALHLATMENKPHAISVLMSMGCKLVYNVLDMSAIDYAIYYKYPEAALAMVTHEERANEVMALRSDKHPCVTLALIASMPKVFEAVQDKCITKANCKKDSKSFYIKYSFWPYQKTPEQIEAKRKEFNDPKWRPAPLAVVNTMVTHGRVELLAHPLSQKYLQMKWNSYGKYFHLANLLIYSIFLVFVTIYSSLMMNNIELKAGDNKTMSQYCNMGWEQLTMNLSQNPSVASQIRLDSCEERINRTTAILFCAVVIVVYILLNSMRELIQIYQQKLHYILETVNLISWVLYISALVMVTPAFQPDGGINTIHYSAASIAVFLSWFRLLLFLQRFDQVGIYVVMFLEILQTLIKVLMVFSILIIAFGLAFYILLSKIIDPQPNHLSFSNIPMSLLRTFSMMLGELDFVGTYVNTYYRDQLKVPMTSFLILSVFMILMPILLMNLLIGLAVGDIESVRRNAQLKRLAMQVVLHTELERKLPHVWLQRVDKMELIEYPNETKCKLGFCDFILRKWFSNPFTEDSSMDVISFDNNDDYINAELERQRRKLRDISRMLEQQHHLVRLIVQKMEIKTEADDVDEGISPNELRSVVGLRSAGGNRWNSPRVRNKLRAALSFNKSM
Experimental: (§1) (FIG. 1A) Cells expressing either dTRPA1, mTRPA1, or mCherry were Xray irradiated (0.5 nGy/cm^2/sec) for 60 sec while monitoring changes in intracellular Ca^2+. BITC (100 μM) was added at the end of the experiments to confirm TRPA1 expression. […] (FIG. 1B) As in (FIG. 1A), except cells were stimulated with H2O2 (10 μM) administration. […] One-way ANOVA with Tukey's multiple comparisons test.
(§2) The Xrs source (FIG. 3A) was mounted to a Zeiss 710 LSM confocal imaging system. Changes in intracellular Ca^2+ were detected using a Fluo-4 Direct™ calcium assay kit. Fluo-4 epifluorescence changes were computed as (Fi-Fo; ΔF)/Fo, where Fi, is the fluorescence intensity at any frame and F0, is the resting fluorescence. F0 was calculated as the averaged fluorescence of the first 3 frames before stimulation.

[2] = tested on: isolated Drosophila brains
[3] = molecular target: T2, mouse TRPA1 (mTRPA1) (Mus musculus, UniProt Q8BLA8); assay: Intracellular Ca2+ imaging (Fluo-4) in HEK293 cells expressing mTRPA1; assay type: cell-based; conditions: H2O2 10 μM, BITC 100 μM added at end of experiment
T2 construct: expressed in transfected cells; host or cells: HEK293
Experimental: as §1, §2

[4] = tested on: HEK293 cells expressing mCherry; assay: Intracellular Ca2+ imaging (Fluo-4) in HEK293 cells expressing mCherry control; assay type: cell-based, human; conditions: HEK293 cells expressing mCherry only; H2O2 10 μM; BITC 100 μM added at end of experiment
Experimental: as §1, §2

[5] = tested on: Drosophila; conditions: flies fed food containing H2O2 (1%) for 5 hours vs vehicle; 1 hour acclimation; p<0.03; n=29-30
[6] = tested on: isolated Drosophila brains; conditions: brains perfused with 200 μM H2O2; electrode in vs out of brain p<0.0042; n=3

T2 sequence (Q8BLA8 whole entry): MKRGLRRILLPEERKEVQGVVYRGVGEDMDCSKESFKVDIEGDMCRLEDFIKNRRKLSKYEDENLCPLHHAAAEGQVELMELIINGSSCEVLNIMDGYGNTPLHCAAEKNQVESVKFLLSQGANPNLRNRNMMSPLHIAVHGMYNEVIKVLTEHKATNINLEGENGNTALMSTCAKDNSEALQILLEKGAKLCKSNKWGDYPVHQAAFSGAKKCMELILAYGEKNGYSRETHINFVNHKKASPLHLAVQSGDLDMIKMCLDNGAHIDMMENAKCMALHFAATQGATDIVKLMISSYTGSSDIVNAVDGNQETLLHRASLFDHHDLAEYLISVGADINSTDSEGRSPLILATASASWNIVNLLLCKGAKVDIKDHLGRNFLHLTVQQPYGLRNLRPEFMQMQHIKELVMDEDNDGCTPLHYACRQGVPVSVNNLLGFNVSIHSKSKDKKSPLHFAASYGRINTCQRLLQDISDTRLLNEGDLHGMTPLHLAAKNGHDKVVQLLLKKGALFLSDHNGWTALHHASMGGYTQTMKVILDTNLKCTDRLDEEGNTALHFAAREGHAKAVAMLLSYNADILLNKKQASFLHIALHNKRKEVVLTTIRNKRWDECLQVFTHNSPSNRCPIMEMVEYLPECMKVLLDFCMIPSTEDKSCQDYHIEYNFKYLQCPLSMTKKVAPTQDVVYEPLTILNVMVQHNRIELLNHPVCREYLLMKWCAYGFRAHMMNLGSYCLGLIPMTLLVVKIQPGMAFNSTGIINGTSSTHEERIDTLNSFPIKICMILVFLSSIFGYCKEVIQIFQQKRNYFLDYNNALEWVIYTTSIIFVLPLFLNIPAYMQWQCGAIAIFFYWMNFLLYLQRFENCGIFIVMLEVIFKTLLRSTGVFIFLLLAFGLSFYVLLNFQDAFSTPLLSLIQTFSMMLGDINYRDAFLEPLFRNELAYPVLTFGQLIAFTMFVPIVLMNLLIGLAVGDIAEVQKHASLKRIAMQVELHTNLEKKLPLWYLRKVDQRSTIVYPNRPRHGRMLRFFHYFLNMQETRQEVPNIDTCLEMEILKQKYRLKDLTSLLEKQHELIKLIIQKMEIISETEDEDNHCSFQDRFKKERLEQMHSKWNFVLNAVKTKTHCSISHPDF

SMILES: CC1(C)CC(O)CC(C)(C)N1[O] [Tempol]
- effect on Xray-induced Ca2+ increases ([1]; Xray irradiation, ROS scavenger present): blocked

SMILES: N[C@@H](Cc1ccc(O)c(I)c1)C(=O)O [3IY, 3-iodotyrosine]
- effect on Xrs-stimulated DA release (AUC of amperometric signals) after DA depletion ([2]; 10 mg/mL orally administered to flies for 24 hr vs vehicle, p<0.013, n=13-15): significantly reduces the ability of Xrs to stimulate DA release

SMILES: S=C=NCc1ccccc1 [BITC, benzyl isothiocyanate]
- change in intracellular Ca2+ on agonist administration [3]: increases intracellular Ca^2+
- change in intracellular Ca2+ on agonist administration [4]: modest increase in Ca^2+
- change in intracellular Ca2+ on agonist administration [1]: increases intracellular Ca^2+

SMILES: CC(C)c1ccc(NC(=O)Cn2cnc3c2c(=O)n(C)c(=O)n3C)cc1 [HC-030031]
- effect on Xrs-stimulated DA release (AUC of amperometric current) ([2]; Xrs 0.1 Gy/sec for 250 msec, brains incubated 5 min with 1 μM TTX or 100 μM HC-030031 vs control/vehicle): inhibits Xrs-stimulated DA release

SMILES: NC1=N[C@H](O)[C@H]2[C@H]3O[C@]4(O)O[C@@H]([C@@H](O)[C@@]2(N1)[C@@H]4O)[C@]3(O)CO [TTX, tetrodotoxin]
- effect on Xrs-stimulated DA release (AUC of amperometric current) [2]: robustly inhibits this release

SMILES: OO [H2O2, hydrogen peroxide]
- change in intracellular Ca2+ on agonist administration [3]: not observed
- locomotion (total beam crossings over a 4 hr period) [5]: significantly stimulates locomotion
- DA release (peak amperometric current) [6]: stimulates DA release
- change in intracellular Ca2+ on agonist administration [4]: not observed
- change in intracellular Ca2+ on agonist administration [1]: promotes an acute increase in intracellular Ca^2+

— patent US20250367323A1, “PLATFORM FOR RADIOLYTIC NEUROMODULATION” (THE UAB RESEARCH FOUNDATION, priority 2024, published 2025)
